Like-named read-outs stand apart in the source and are kept apart here.
Assays:
[1] = system: NCI-H82 cell; test: Cell viability (Promega CellTiter-Glo) of NCI-H82 cell; format: cell-based; details: Homo sapiens
Protocol: Cell viability was detected using the Promega CellTiter-Glo kit, the kit reflected cell viability by directly measuring intracellular ATP content. Small cell lung cancer cell NCI-H82 (ATCC, No. HTB-175) was cultured in 10% fetal bovine serum-containing RPMI1640 medium (+P/S).
(§1) Cell viability was detected using the Promega CellTiter-Glo kit, the kit reflected cell viability by directly measuring intracellular ATP content.
(§2) Daoy cell was cultured in 10% fetal bovine serum-containing DMEM medium (+P/S), and NCI-H82 cell was cultured in 10% fetal bovine serum-containing RPMI1640 medium (+P/S).
(§3) Cell viability was detected using the Promega CellTiter-Glo kit, the kit reflected cell viability by directly measuring intracellular ATP content. In the experiment, the IC50 value of different compounds on different tumor cell lines was detected to determine cell lines that were sensitive or insensitive to different compounds.
(§4) Tumor cells were cultured in 10% FBS-containing medium (+p/s), and incubated for 3 h or the following day, then the gradient diluted compound was added. After 3 days of culture, the relevant IC50 (50% inhibiting concentration) was measured. The name, source and culture conditions of each tumor cell line were as follows:
Cell line NCI-H82 (ATCC, No. HTB-175) was cultured in 10% fetal bovine serum-containing RPMI1640 medium (+P/S).

[2] = system: G-401; test: Cell viability (CellTiter-Glo) of G-401; format: cell-based; details: Homo sapiens, 72 h; G-401, 3 days of culture, Table 5; read-out: IC50 G-401
Protocol: (§5) Cell viability was detected using the Promega CellTiter-Glo kit, the kit reflected cell viability by directly measuring intracellular ATP content. Different cancer cells was cultured in medium, the 50% inhibiting concentration (IC50) of compound AB24852 on cancer cells was determined using Promega CellTiter-Glo kit. The name, source and culture conditions of each tumor cell line were as follows:
Cell line G-401 (ATCC, No. CRL-1441) was cultured in 10% fetal bovine serum-containing McCoy's 5a medium (+P/S).
as §3
(§6) Tumor cells were cultured in 10% FBS-containing medium (+p/s), and incubated for 3 h or the following day, then the gradient diluted compound was added. After 3 days of culture, the relevant IC50 (50% inhibiting concentration) was measured. The name, source and culture conditions of each tumor cell line were as follows: […]

[3] = system: MDA-MB-453; test: Cell viability (CellTiter-Glo) of MDA-MB-453; format: cell-based; details: Homo sapiens, 72 h; MDA-MB-453, 3 days of culture, Table 5; read-out: IC50 MDA-MB-453
Protocol: as §5
Cell line MDA-MB-453 (ATCC, No. HTB-131) was cultured in 10% fetal bovine serum-containing Leibovitz's L-15 medium (+P/S).
as §3, §6

[4] = system: SW48; test: Cell viability (CellTiter-Glo) of SW48; format: cell-based; details: Homo sapiens, 72 h; SW48, 3 days of culture, Table 5; read-out: IC50 SW48
Protocol: as §5
Cell line SW48 (ATCC, No. CCL-231) was cultured in 10% fetal bovine serum-containing Leibovitz's L-15 medium (+P/S).
as §3, §6

[5] = system: GB-1; test: Cell viability (CellTiter-Glo) of GB-1; format: cell-based; details: Homo sapiens, 72 h; GB-1, 3 days of culture
Protocol: as §3, §4
Cell line GB-1 (JCRB, No. IF050489) was cultured in 10% fetal bovine serum-containing DMEM medium (+P/S).

[6] = system: 786-O; test: Cell viability (CellTiter-Glo) of 786-O; format: cell-based; details: Homo sapiens, 786-0, 72 h, 3 days of culture
Protocol: as §3, §4
Cell line 786-0 (ATCC, No. CRL-1932) was cultured in 10% fetal bovine serum-containing RPMI1640 medium (+P/S).

[7] = system: CFPAC-1; test: Cell viability (CellTiter-Glo) of CFPAC-1; format: cell-based; details: Homo sapiens, 72 h; CFPAC-1, 3 days of culture
Protocol: as §3, §4
Cell line CFPAC-1 (ATCC, No. CRL-1918) was cultured in 10% fetal bovine serum-containing IMDM medium (+P/S).

[8] = system: SF-126; test: Cell viability (CellTiter-Glo) of SF-126; format: cell-based; details: Homo sapiens, 72 h; SF-126, 3 days of culture
Protocol: as §3, §6

[9] = Stability in human liver microsome; format: in vitro ADME; details: liver microsomes, pH 7.4, 1.5 μM drug solution, NADPH, 37° C., read-out: Human T1/2
Protocol: Vortexing for 10 min, the sample was centrifuged with 5594×g for 15 min in centrifuger (Thermo Multifuge×3R). • 10) taking 50 μL supernatant from the centrifuged sample, transferred to 96 well sample plate contain 50 μL water, mixed, and the sample was analyzed using LC-MS/MS.

[10] = system: Daoy cell; test: Cell viability (CellTiter-Glo) of Daoy cell with or without CsA; format: cell-based; details: Homo sapiens
Protocol: as §1, §2

[11] = 72 h, NCI-H82, 3 days of culture, Table 5, read-out: IC50 NCI-H82
[12] = NCI-H82 cell, Table 1, read-out: IC50
[13] = NCI-H82, read-out: IC50 NCI-H82 cell without CsA
[14] = read-out: IC50 Daoy cell with CsA
[15] = read-out: IC50 Daoy cell without CsA

Cc1ccc(C(=O)C[n+]2ccc(NCc3ccccc3)nc2)cc1 [AB24846]
IC50 [1, 11]: 510 nM | IC50 [1, 12]: 510 nM | IC50 [2]: 690 nM | IC50 [3]: 820 nM | IC50 [4]: 2050 nM | IC50 [5]: 12300 nM | IC50 [6]: 47300 nM | IC50 [7]: 36400 nM | IC50 [8]: 3610 nM

O=C(C[n+]1ccc(NCc2ccccc2)cc1)c1ccc(Br)cc1 [AB24808A]
IC50 [1, 11]: 610 nM | IC50 [1, 12]: 610 nM | IC50 [2]: 910 nM | IC50 [3]: 360 nM | IC50 [4]: 1780 nM | IC50 [5]: 5270 nM | IC50 [6]: 44000 nM | IC50 [7]: 20000 nM | IC50 [8]: 2980 nM | half-life at 1 µM [9]: 5.69 h

O=C(C[n+]1ccc2c(c1)CCCC(c1ccccc1)N2)c1ccc(Cl)cc1 (stereo not drawn) [AB24839]
IC50 [1, 12]: 990 nM | half-life at 1 µM [9]: 11.2 h

O=C1c2cc(OC(F)(F)F)ccc2CCC1[n+]1ccc(NCc2ccccc2)cc1 (stereo not drawn) [AB27156]
IC50 [1, 13]: 260 nM | IC50 [1, 12]: 260 nM | IC50 [10, 14]: 240 nM | IC50 [10, 15]: 1050 nM | half-life at 1 µM [9]: 17.5 h

CC(c1ccccc1)[n+]1ccc2c(ccn2C2CCc3ccc(Cl)cc3C2=O)c1 (stereo not drawn) [AB27141]
IC50 [1, 13]: 10 nM | IC50 [1, 12]: 10 nM | IC50 [10, 14]: 28 nM | IC50 [10, 15]: > 1000 nM | half-life at 1 µM [9]: 4.85 h

O=C(C[n+]1ccc(NCc2ccccc2)cc1)c1ccccc1 [AB24807A]
IC50 [1, 12]: 540 nM | half-life at 1 µM [9]: 3.31 h

O=C1c2cc(Cl)ccc2CCC1[n+]1ccc(NCc2ccccc2)cc1 (stereo not drawn) [AB24913]
IC50 [1, 12]: 180 nM | half-life at 1 µM [9]: 7.97 h

O=C1c2cc(Cl)ccc2CCC1[n+]1ccc2c(ccn2Cc2ccccc2)c1 (stereo not drawn) [AB27124]
IC50 [1, 12]: 30 nM | half-life at 1 µM [9]: 1.77 h

O=C1c2cc(C(F)(F)F)ccc2CCC1[n+]1ccc2c(ccn2Cc2ccccc2)c1 (stereo not drawn) [AB27125]
IC50 [1, 13]: 110 nM | IC50 [1, 12]: 110 nM | IC50 [10, 14]: 190 nM | IC50 [10, 15]: 1460 nM | half-life at 1 µM [9]: 14.2 h

O=C1c2cc(C(F)(F)F)ccc2CCC1[n+]1ccc2c(c1)CCC(c1ccccc1)N2 (stereo not drawn) [AB27131]
IC50 [1, 13]: 440 nM | IC50 [1, 12]: 440 nM | IC50 [10, 14]: 710 nM | IC50 [10, 15]: 4750 nM | half-life at 1 µM [9]: 6.81 h

O=C1c2cc(OC(F)(F)F)ccc2CCC1[n+]1ccc2c(ccn2Cc2ccccc2)c1 (stereo not drawn) [AB27126]
IC50 [1, 13]: 150 nM | IC50 [1, 12]: 150 nM | IC50 [10, 14]: 280 nM | IC50 [10, 15]: 1950 nM | half-life at 1 µM [9]: 20.8 h

Cc1ccc(C(=O)C[n+]2ccc(NCc3ccccc3)cc2)cc1 [AB24845A]
IC50 [1, 11]: 120 nM | IC50 [1, 12]: 120 nM | IC50 [2]: 300 nM | IC50 [3]: 190 nM | IC50 [4]: 140 nM | IC50 [5]: 4370 nM | IC50 [6]: 38600 nM | IC50 [7]: 29400 nM | IC50 [8]: 2280 nM

O=C1c2ccc(Cl)cc2CC1[n+]1ccc(NCc2ccccc2)cc1 (stereo not drawn) [AB24840A]
IC50 [1, 12]: 2590 nM | half-life at 1 µM [9]: 2.33 h

Cc1cn(Cc2ccccc2)c2cc[n+](C3CCc4ccc(C(F)(F)F)cc4C3=O)cc12 (stereo not drawn) [AB27174]
IC50 [1, 12]: 100 nM

O=C1c2ccc(C(F)(F)F)cc2CCC1[n+]1ccc2c(ccn2Cc2ccccc2)c1 (stereo not drawn) [AB24996]
IC50 [1, 12]: 1350 nM

Cc1cnc(C(=O)C[n+]2ccc(NCc3ccccc3)cc2)cn1 [AB24821]
IC50 [1, 12]: 7170 nM

O=C(C[n+]1ccc2c(c1)C=CCC(c1ccccc1)N2)c1ccc(Cl)cc1 (stereo not drawn) [AB24839B]
IC50 [1, 12]: 9130 nM

O=C1c2cc(C(F)(F)F)ccc2CCC1[n+]1ccc(NCc2ccccc2)cc1 (stereo not drawn) [AB27144]
IC50 [1, 13]: 160 nM | IC50 [1, 12]: 160 nM | IC50 [10, 14]: 210 nM | IC50 [10, 15]: 1020 nM | half-life at 1 µM [9]: 75.2 h

Cc1ccc(C(=O)Cn2cnc(/C=C/c3ccccc3)c2)cc1 [AB24850]
IC50 [1, 12]: 5780 nM

O=C(C[n+]1ccc2c(ccn2Cc2ccccc2)c1)c1ccc(C(F)(F)F)cc1 [AB24987]
IC50 [1, 12]: 2000 nM

O=C(C[n+]1ccc2c(c1)CC(c1ccccc1)N2)c1ccc(OC(F)(F)F)cc1 (stereo not drawn) [AB24999]
IC50 [1, 12]: 1300 nM

Cc1cn(Cc2ccccc2)c2cc[n+](C3CCc4ccc(Cl)cc4C3=O)cc12 (stereo not drawn) [AB27142]
IC50 [1, 12]: 60 nM | half-life at 1 µM [9]: 12.4 h

O=C1c2cc(Cl)ccc2CCC1[n+]1ccc2c(c1)CCC(c1ccccc1)N2 (stereo not drawn) [AB27130]
IC50 [1, 13]: 770 nM | IC50 [1, 12]: 770 nM | IC50 [10, 14]: 310 nM | IC50 [10, 15]: 5500 nM | half-life at 1 µM [9]: 5.96 h

CC(C)c1c[nH]c2c[n+](CC(=O)c3cccc(Cl)c3)ccc12 [AB24938]
IC50 [1, 12]: 3960 nM

O=C(C[n+]1ccc2c(ccn2Cc2ccccc2)c1)c1ccc(OC(F)(F)F)cc1 [AB24988]
IC50 [1, 12]: 920 nM

CC(c1ccccc1)n1ccc2c[n+](C3CCc4ccc(OC(F)(F)F)cc4C3=O)ccc21 (stereo not drawn) [AB27162]
IC50 [1, 12]: 240 nM

O=C(C[n+]1ccc2[nH]cc(Cc3ccccc3)c2c1)c1ccc(Cl)cc1 [AB24833A]
IC50 ([1]; NCI-H82): 3380 nM | IC50 ([1]; NCI-H82, 72 h, read-out: IC50 NCI-H82): 3380 nM | IC50 [2]: 5300 nM | IC50 [3]: 5300 nM | IC50 [4]: 8160 nM | IC50 [5]: 22000 nM | IC50 [6]: 45400 nM | IC50 [7]: 24800 nM | IC50 [8]: 21600 nM

O=C1c2ccc(F)cc2CCC1[n+]1ccc(NCc2ccccc2)cc1 (stereo not drawn) [AB24949]
IC50 [1, 12]: 680 nM

O=C(C[n+]1ccc(NCc2ccccn2)cc1)c1ccc(Cl)cc1 [AB24822]
IC50 [1, 12]: 6700 nM

CCCn1ccc2c[n+](C3CCc4ccc(OC(F)(F)F)cc4C3=O)ccc21 (stereo not drawn) [AB27145]
IC50 [1, 12]: 250 nM

O=C(C[n+]1ccc(NCc2ccccc2)nc1)c1ccc(-c2ccccc2)cc1 [AB24964]
IC50 [1, 12]: 1090 nM | half-life at 1 µM [9]: 3.6 h

O=C1c2cnccc2CCC1[n+]1ccc(NCc2ccccc2)cc1 (stereo not drawn) [AB24924]
IC50 [1, 12]: 3960 nM

Cc1ccc(C(=O)C[n+]2ccc(N3CCc4ccccc4C3=O)cc2)cc1 [AB24959]
IC50 [1, 12]: 4110 nM

Cc1ccc(C(=O)C[n+]2ccc(NCc3ccccc3)c(C)c2)cc1 [AB27169]
IC50 [1, 12]: 320 nM
